The values that follow come from US20210138025A1, “CATIONIC PEPTIDES WITH IMMUNOMODULATORY AND/OR ANTI-BIOFILM ACTIVITIES” (priority 2018, published 2021).

The test system of one experiment is MCP-1. The experiment in a line: MCP-1 chemokine induction in human PBMCs, ELISA (Tables 6, 7; FIGS. 6-9, 13). The class given is cell-based. The conditions noted are these: SPOT synthesized control peptides, determined as in Table 6; Table 7. How it is done: Venous blood (20 ml) from healthy volunteers was collected in Vacutainer® collection tubes containing sodium heparin as an anticoagulant (Becton Dickinson, Mississauga, ON) in accordance with UBC ethical approval and guidelines. Blood was diluted 1:1 with complete RPMI 1640 medium and separated by centrifugation over a Ficoll-Paque® Plus (Amersham Biosciences, Piscataway, N.J., USA) density gradient. White blood cells were isolated from the buffy coat, washed twice in PBS and then resuspended in RPMI 1640 complete medium (containing 10% fetal bovine serum), and the number of peripheral blood mononuclear cells (PBMC) was determined by Trypan blue exclusion. PBMCs (5×10^5) were seeded into 12-well tissue culture dishes (Falcon; Becton Dickinson) at 0.75-1×10^6 cells/ml at 37° C. in 5% CO2. The above conditions were chosen to mimic conditions for circulating blood monocytes entering tissues at the site of infection via extravasation.
Following incubation of the cells under various treatment regimens, the tissue culture supernatants were centrifuged at 1000×g for 5 min, then at 10,000×g for 2 min to obtain cell-free samples. Supernatants were aliquoted and then stored at −20° C. prior to assay for various chemokines by capture ELISA (eBioscience and BioSource International Inc., CA, USA respectively)
On the technique in general: ELISA stands for enzyme-linked immunosorbent assay.

In another experiment the test system is S. aureus (MRSA SAP0017). The class given is cell-based, Staphylococcus aureus. The conditions noted are these: SPOT synthesized control peptides, determined as in Table 5; Table 7. Summed up:
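Static biofilm assay: 1/100 dilutions of overnight cultures grown with peptide at varying concentrations, added at time zero, in BM2 biofilm medium or tryptic soy broth plus 1% glucose in polypropylene plates. After 22-46 h, adherent biofilm stained with crystal violet and absorbance read at 595 nm.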

The test system of a further experiment is IL-1β. The experiment in a line: Suppression of LPS-induced IL-1β production in human PBMCs, ELISA (Tables 6, 7; FIGS. 6-9, 13). The conditions noted are these: SPOT synthesized control peptides, determined as in Table 6; Table 7.

On to C13 (VARAVQKRWRKK) [Peptide C13], for which, in the experiment with MCP-1, the “MCPI production in PBMC” value is 221 pg/mL. Also, the “% Biofilm Inhibition” value in the experiment with S. aureus (MRSA SAP0017) is 105%. In the experiment on IL-1β, the “Fold Change in IL1-β relative to untreated LPS-stimulated cells” value is listed as 1.55.

In the case of C19 (RLIQWGWKIWAV) [Peptide C19], the “MCPI production in PBMC” value in the experiment on MCP-1 turned out to be 738 pg/mL. For the same substance, the “% Biofilm Inhibition” value with S. aureus (MRSA SAP0017) is on record as 99%. Further, in the experiment with IL-1β, the “Fold Change in IL1-β relative to untreated LPS-stimulated cells” value turned out to be 0.94.

Regarding C41 (KAVAGARQRWAL) [Peptide C41], the “MCPI production in PBMC” value in the experiment with MCP-1 was determined as 353 pg/mL. Besides, in the experiment on S. aureus (MRSA SAP0017), the “% Biofilm Inhibition” value came out at 101%. Further, in the experiment on IL-1β, the “Fold Change in IL1-β relative to untreated LPS-stimulated cells” value was determined as 0.82.

As for C24 (LKILIAQAKKGL) [Peptide C24], the “MCPI production in PBMC” value with MCP-1 was 1280 pg/mL. The “% Biofilm Inhibition” value in the experiment on S. aureus (MRSA SAP0017) was determined as 101%. Further, the “Fold Change in IL1-β relative to untreated LPS-stimulated cells” value in the experiment on IL-1β is 1.4.

Consider C10 (QLRVAWKRAWWA) [Peptide C10], for which the “MCPI production in PBMC” value in the experiment on MCP-1 came out at 1313 pg/mL. In the experiment on S. aureus (MRSA SAP0017), the “% Biofilm Inhibition” value was found to be 87%. Besides, the “Fold Change in IL1-β relative to untreated LPS-stimulated cells” value in the experiment on IL-1β is listed as 1.34.

On to C23 (LKKIIVQAVGLI) [Peptide C23], for which the “MCPI production in PBMC” value with MCP-1 worked out at 653 pg/mL. Moreover, the “% Biofilm Inhibition” value with S. aureus (MRSA SAP0017) is 97%. In the experiment with IL-1β, the “Fold Change in IL1-β relative to untreated LPS-stimulated cells” value was found to be 0.95.

Consider C11 (KAVKKGRRAIVV) [Peptide C11], for which the “MCPI production in PBMC” value in the experiment on MCP-1 was found to be 197 pg/mL. The “% Biofilm Inhibition” value with S. aureus (MRSA SAP0017) was determined as 106%. For the same substance, in the experiment with IL-1β, the “Fold Change in IL1-β relative to untreated LPS-stimulated cells” value was determined as 1.12.

C27 (KKAIKVVAIGRI) [Peptide C27]: the “MCPI production in PBMC” value in the experiment on MCP-1 was 50 pg/mL. Further, the “% Biofilm Inhibition” value in the experiment with S. aureus (MRSA SAP0017) was determined as 102%. The “Fold Change in IL1-β relative to untreated LPS-stimulated cells” value in the experiment with IL-1β is listed as 1.06.

C16 (KKIRQWGKAAAW) [Peptide C16]: the “MCPI production in PBMC” value with MCP-1 is 571 pg/mL. Besides, the “% Biofilm Inhibition” value in the experiment with S. aureus (MRSA SAP0017) stood at 100%. In addition, the “Fold Change in IL1-β relative to untreated LPS-stimulated cells” value in the experiment with IL-1β came to 0.99.

In the case of C48 (KVIKIVLVRVVK) [Peptide C48], the “MCPI production in PBMC” value in the experiment on MCP-1 turned out to be 1752 pg/mL. Moreover, the “% Biofilm Inhibition” value in the experiment on S. aureus (MRSA SAP0017) is reported as 99%. The “Fold Change in IL1-β relative to untreated LPS-stimulated cells” value in the experiment with IL-1β is listed as 1.07.

Take C55 (VAKVKKARWRLR) [Peptide C55]: the “MCPI production in PBMC” value with MCP-1 was found to be 208 pg/mL. In addition, the “% Biofilm Inhibition” value in the experiment with S. aureus (MRSA SAP0017) is listed as 102%. Further, the “Fold Change in IL1-β relative to untreated LPS-stimulated cells” value with IL-1β is recorded as 0.92.

Regarding C51 (VKWKGKVIVVQL) [Peptide C51], in the experiment on MCP-1, the “MCPI production in PBMC” value worked out at 862 pg/mL. For the same substance, the “% Biofilm Inhibition” value in the experiment on S. aureus (MRSA SAP0017) was 79%. In addition, the “Fold Change in IL1-β relative to untreated LPS-stimulated cells” value with IL-1β amounted to 0.81.

Regarding C54 (QVVVKKKAIQVV) [Peptide C54], in the experiment with MCP-1, the “MCPI production in PBMC” value stood at 651 pg/mL. Further, the “% Biofilm Inhibition” value with S. aureus (MRSA SAP0017) was determined as 101%. Further, the “Fold Change in IL1-β relative to untreated LPS-stimulated cells” value with IL-1β is 0.95.

For C30 (RGARVIRWKLRR) [Peptide C30], the “MCPI production in PBMC” value with MCP-1 was found to be 1153 pg/mL. For the same substance, in the experiment with S. aureus (MRSA SAP0017), the “% Biofilm Inhibition” value worked out at 100%. For the same substance, in the experiment with IL-1β, the “Fold Change in IL1-β relative to untreated LPS-stimulated cells” value is listed as 1.23.

For the substance C35 (IILKRVQVQKIK) [Peptide C35], in the experiment on MCP-1, the “MCPI production in PBMC” value came out at 481 pg/mL. For the same substance, the “% Biofilm Inhibition” value with S. aureus (MRSA SAP0017) is given as 101%. Further, the “Fold Change in IL1-β relative to untreated LPS-stimulated cells” value in the experiment on IL-1β came out at 1.1.

C32 (QRWKKWKVLKLR) [Peptide C32]: the “MCPI production in PBMC” value in the experiment on MCP-1 is 1614 pg/mL. Also, the “% Biofilm Inhibition” value in the experiment on S. aureus (MRSA SAP0017) was 102%. The “Fold Change in IL1-β relative to untreated LPS-stimulated cells” value in the experiment with IL-1β stood at 1.11.

In the case of C21 (VLLRVGARIVVG) [Peptide C21], in the experiment on MCP-1, the “MCPI production in PBMC” value turned out to be 345 pg/mL. In addition, the “% Biofilm Inhibition” value with S. aureus (MRSA SAP0017) worked out at 99%. Moreover, the “Fold Change in IL1-β relative to untreated LPS-stimulated cells” value with IL-1β was 0.83.

In the case of C37 (QQKVIRLLWKAK) [Peptide C37], the “MCPI production in PBMC” value in the experiment on MCP-1 was 216 pg/mL. In addition, the “% Biofilm Inhibition” value in the experiment on S. aureus (MRSA SAP0017) is 102%. The “Fold Change in IL1-β relative to untreated LPS-stimulated cells” value in the experiment on IL-1β came to 0.83.

On to C49 (WLKRIVKVVVLK) [Peptide C49], for which, in the experiment on MCP-1, the “MCPI production in PBMC” value came out at 1557 pg/mL. In addition, in the experiment on S. aureus (MRSA SAP0017), the “% Biofilm Inhibition” value is 103%. Further, the “Fold Change in IL1-β relative to untreated LPS-stimulated cells” value in the experiment on IL-1β is given as 0.8.
